Assay [1] relates to KB. Description: Cytotoxicity against human KB cells by sulforhodamine B assay. The assay is classed as functional, cell-based. (In general: In SRB staining, fixed cells bind dye roughly in proportion to their protein.)
In assay [2] the test system is Vero. Nature of the assay: Cytotoxicity against African green monkey Vero cells by sulforhodamine B assay. The note with it: Chlorocebus sabaeus. The class given is cell-based.
Assay [3] has as its system Plasmodium falciparum. Nature of the assay: Antiplasmodial activity against chloroquine/antifolate-sensitive Plasmodium falciparum TM4 infected in human RBC incubated for 18 to 20 hrs by microdilution radioisotope method. The class given is functional, organism-based. (Broth dilution looks for growth in wells or tubes with falling amounts of substance.)
Assay [4] relates to Plasmodium falciparum. Description: Antiplasmodial activity against multidrug-resistant Plasmodium falciparum K1 infected in human RBC incubated for 18 to 20 hrs by microdilution radioisotope method. The class given is functional, organism-based.

As a reminder, the IC50 is the concentration that gives 50% inhibition. Take `COc1cc(O)c2c(=O)c(OC)c(-c3ccc4c(c3)OCO4)oc2c1`: the IC50 in assay [1], in assay [2], in assay [3] and in assay [4] was more than 47.8 µM throughout.
As for `O=C(/C=C/c1ccc(O)c(O)c1)NCCc1ccc(O)cc1`, the IC50 in assay [1] is more than 47.8 µM; in assay [2], more than 47.8 µM; in assay [3] it was more than 47.8 µM; in assay [4], 23.8 µM.
On to `COc1cc(OC)c2c(=O)c(OC)c(-c3ccc(O)c(OC)c3)oc2c1`, for which the IC50 in assay [1] is more than 47.8 µM; in assay [2], more than 47.8 µM; in assay [3] it was 31.5 µM; in assay [4], 27.9 µM.
For the compound `CC(C)=CCC/C(C)=C/[C@H]1OC(=O)C[C@]12C[C@H](O)C=CC2=O`, the IC50 in assay [1] worked out at 10.2 µM; in assay [2], 13.5 µM; in assay [3], 11.1 µM; in assay [4] it was 9.1 µM.
For `COc1cc2c(c(OC)c1OC)CCN1C(=O)c3c(ccc(O)c3O)C[C@@H]21`, in that order: more than 47.8 µM, more than 47.8 µM, more than 47.8 µM and 29.1 µM.
For `COc1cc2c(c(O)c1OC)CCn1c-2cc2ccc(O)c(O)c2c1=O`, in that order: more than 47.8 µM, more than 47.8 µM, 19.3 µM and 26.3 µM.
Regarding `COc1cc2c(c(OC)c1O)CCn1c-2cc2ccc(O)c(O)c2c1=O`, the IC50 is more than 47.8 µM in assay [1], more than 47.8 µM in assay [2], 41.4 µM in assay [3] and 32.4 µM in assay [4].
In the case of `COc1cc2c(c(OC)c1O)CCN1C(=O)c3c(ccc(O)c3O)C[C@@H]21`, the half-inhibitory concentration (IC50) is more than 47.8 µM in assay [1], more than 47.8 µM in assay [2], 38.1 µM in assay [3] and 26.1 µM in assay [4].
Turning to `COc1cc2c(c(OC)c1OC)CCn1c-2cc2ccc(O)c(O)c2c1=O`, the IC50 in assay [1] is more than 47.8 µM; in assay [2], more than 47.8 µM; in assay [3], 25.6 µM; in assay [4], 10.8 µM.
Turning to `COc1cc(-c2oc3cc(OC)c(OC)c(O)c3c(=O)c2OC)ccc1O` [CHRYSOSPLENOL B], the half-inhibitory concentration (IC50) was more than 47.8 µM in assay [1], more than 47.8 µM in assay [2], 39.5 µM in assay [3] and 12.4 µM in assay [4].
For `CC1(C)N=C(N)N=C(N)N1c1ccc(Cl)cc1` [CYCLOGUANIL], the concentration for half-maximal inhibition (IC50) in assay [4] turned out to be 3.2 µM.
In assay [1], `COc1cccc2c1C(=O)c1c(O)c3c(c(O)c1C2=O)C[C@@](O)(C(=O)CO)C[C@@H]3O[C@H]1C[C@H](N)[C@H](O)[C@H](C)O1` [DOXORUBICIN] showed a half-maximal inhibitory concentration (IC50) of 1 µM.
In turn, `Cc1c2ccncc2c(C)c2c1[nH]c1ccccc12` [ELLIPTECINE] returned an IC50 in assay [2] of 0.4 µM.
Consider `O=C(/C=C/c1ccc(O)cc1)NCCc1ccc(O)cc1` [N-P-COUMAROYL TYRAMINE], for which the IC50 in assay [1], in assay [2], in assay [3] and in assay [4] was more than 47.8 µM in each case.
Turning to `COc1cc(/C=C/C(=O)NCCc2ccc(O)cc2)ccc1O` [N-TRANS-FERULOYL TYRAMINE], the IC50 in assay [1] was more than 47.8 µM; in assay [2] it was more than 47.8 µM; in assay [3], more than 47.8 µM; in assay [4] it was 54.9 µM.
`COc1cc(O)c2c(=O)c(OC)c(-c3ccc(O)c(OC)c3)oc2c1` [PACHYPODOL]: the concentration for half-maximal inhibition (IC50) in assay [1], in assay [2], in assay [3] and in assay [4] was more than 47.8 µM throughout.
`CCc1nc(N)nc(N)c1-c1ccc(Cl)cc1` [PYRIMETHAMINE]: in assay [4], the half-inhibitory concentration (IC50) stood at 31 µM.
For the compound `COc1cc([C@H]2OC[C@H]3[C@@H]2CO[C@@H]3c2cc(OC)c(O)c(OC)c2)cc(OC)c1O` [SYRINGARESINOL], the IC50 in assay [1], in assay [2], in assay [3] and in assay [4] was more than 47.8 µM throughout.
